Structures are written as SMILES. Active and inactive are the calls of the source. No cut-off for these calls is given here.

Data set [1] deals with HMC1. Description: Inhibition of FCepsilonRI expression in human HMC1 cells at 50 to 100 uM after 72 hrs by flow cytometry. The class given is functional, cell-based.
A short description of data set [2]: Cytotoxicity against human HMC1 cells assessed induction of morphological changes at 50 uM. To be noted: hmc1, 50 µM.
A short description of data set [3]: Cytotoxicity against human HMC1 cells assessed induction of cell death at 50 uM. The class given is cell-based. The settings on record: hmc1, 50 µM.
In data set [4] the test system is HMC1. Description: Inhibition of FCepsilonRI expression in human HMC1 cells at 100 uM after 72 hrs by flow cytometry. The class given is functional, cell-based. In general terms: Flow cytometry measures light scatter and fluorescence of single cells or particles in a stream.
The test system of data set [5] is HMC1. Description: Inhibition of FCepsilonRI beta subunit mRNA expression in human HMC1 cells at 50 uM after 36 hrs by RT-PCR analysis. The format is functional, cell-based.
In data set [6] the test system is HMC1. The data set can be described thus: Inhibition of FCepsilonRI alpha subunit mRNA expression in human HMC1 cells at 50 uM after 36 hrs by RT-PCR analysis. The class given is functional, cell-based.
Data set [7] relates to HMC1. Description: Inhibition of FCepsilonRI gamma subunit mRNA expression in human HMC1 cells at 50 uM after 36 hrs by RT-PCR analysis. The format is functional, cell-based.

As for `O=c1cc(-c2cc(O)c(O)c(O)c2)oc2cc(O)cc(O)c12`, the inhibition entry in the data set on HMC1 [1] was “Active”.
As for `COc1cc(-c2[o+]c3cc(O)cc(O)c3cc2O)cc(OC)c1O` [MALVIDIN], the Activity result in data set [2] is listed as “Toxic”.
`O=c1cc(-c2ccc(O)cc2)oc2cc(O)c(O)c(O)c12` [SCUTELLAREIN]: in data set [3], the Activity entry was “Toxic”.
For `O=c1cc(-c2ccccc2)oc2cc(O)c(O)c(O)c12` [BAICALEIN], in data set [2], the Activity entry is “Toxic”.
For `COc1c(O)cc([C@H]2Oc3cc(O)cc(O)c3C[C@H]2OC(=O)c2cc(O)c(O)c(O)c2)cc1O`, the inhibition entry with HMC1 [1] and in the data set on HMC1 [4] was “inactive” each time.
Take `O=c1cc(-c2ccc(O)cc2)oc2cc(O)cc(O)c12` [APIGENIN]: the Activity entry in data set [2] is “Toxic”.
Turning to `COc1cc([C@H]2Oc3cc(O)cc(O)c3C[C@H]2OC(=O)c2cc(O)c(O)c(O)c2)cc(O)c1O`, the inhibition entry with HMC1 [1] and in the data set on HMC1 [4] was “inactive” throughout.
Regarding `Oc1cc(O)c2c(c1)O[C@H](c1ccc(O)c(O)c1)[C@H](O)C2`, the inhibition entry with HMC1 [4] is “Active”.
Regarding `Oc1cc(O)c2cc(O)c(-c3cc(O)c(O)c(O)c3)[o+]c2c1`, in the data set with HMC1 [1], the inhibition result was “Active”.
With `O=C(O[C@@H]1Cc2c(O)cc(O)cc2O[C@@H]1c1cc(O)c(O)c(O)c1)c1cc(O)c(O)c(O)c1`, the inhibition result with HMC1 [5] and with HMC1 [6] was “inactive” each time. Moreover, in the data set with HMC1 [7], the inhibition result is “Active”.
Turning to `COc1c(O)cc(C(=O)O[C@@H]2Cc3c(O)cc(O)cc3O[C@@H]2c2cc(O)c(O)c(O)c2)cc1O`, the inhibition result with HMC1 [1] and in the data set with HMC1 [4] was “inactive” each time.
Regarding `O=c1cc(-c2ccc(O)c(O)c2)oc2cc(O)cc(O)c12` [LUTEOLIN], in data set [2], the Activity entry was “Toxic”.
For `COc1c(O)cc(O)c2c(=O)cc(-c3ccccc3)oc12` [WOGONIN], the Activity result in data set [2] is on record as “Toxic”.
Take `O=C(O[C@@H]1Cc2c(O)cc(O)cc2O[C@@H]1c1ccc(O)c(O)c1)c1cc(O)c(O)c(O)c1`: in the data set on HMC1 [4], the inhibition entry was “Active”.
For `Oc1cc(O)c2cc(O)c(-c3ccc(O)c(O)c3)[o+]c2c1` [CYANIDIN], the Activity result in data set [2] is “Toxic”.
Take `COc1cc(C(=O)O[C@@H]2Cc3c(O)cc(O)cc3O[C@@H]2c2cc(O)c(O)c(O)c2)cc(O)c1O`: the inhibition entry with HMC1 [1] and in the data set on HMC1 [4] was “inactive” in each case.
For `O=c1cc(-c2ccccc2)oc2c(O)c(O)cc(O)c12` [NORWOGONIN], the Activity entry in data set [3] is given as “Toxic”.
On to `O=c1cc(-c2ccc(O)c(O)c2)oc2c([C@@H]3O[C@H](CO)[C@@H](O)[C@H](O)[C@H]3O)c(O)cc(O)c12` [ORIENTIN], for which, in data set [2], the Activity entry was “Toxic”.
Turning to `O=C(O[C@@H]1Cc2c(O)cc(O)cc2O[C@H]1c1cc(O)c(O)c(O)c1)c1cc(O)c(O)c(O)c1`, in the data set with HMC1 [4], the inhibition entry is “Active”.

Values taken from ChEMBL document CHEMBL1156298, “New inhibitors for expression of IgE receptor on human mast cell” (Bioorg Med Chem Lett, 2010).
